Experimental data from patent publication US20240165259A1, “BIOORTHOGONAL REACTION SUITABLE FOR CLICK/UNCLICK APPLICATIONS” (DANA-FARBER CANCER INSTITUTE, INC., priority 2021, published 2024).

What was measured:
lysozyme-COT 15 = molecular target: T1, lysozyme-COT 15 (Gallus gallus, UniProt P00698); experiment: In vitro protein labeling of lysozyme-COT 15 with hydroxylamine 13 (in-gel fluorescence, intact MS); format: biochemical
T1 construct: purchased
Experimental: To test the bioorthogonality of the hydroamination reaction, in vitro protein labeling experiments were performed. Fluorophore-conjugated hydroxylamine 13 was first assembled from 6-carboxytetramethylrhodamine and hydroxylamine 12, which was in turn synthesized by nucleophilic displacement of iodide 11 with N-methylhydroxylamine hydrochloride (FIG. 4A). […] With both reaction components in hand, cyclooctyne-functionalized lysozyme 15 was treated with hydroxylamine 13 (0-200 μM) in PBS for 2 hours and analyzed by in-gel fluorescence (FIG. 4C). Labeling occurred in a concentration-dependent manner, and labeling was saturated at 100 μM hydroxylamine. […]
Lysozyme (CAS 12650-88-3, 50 mg/mL in deionized H2O) was diluted into phosphate-buffered saline (PBS, pH 7.4) to a final concentration of 10 mg/mL. […] The concentration of lysozyme was determined by A280 measurement in denaturing buffer (pH 7.0, 6 M guanidinium, 30 mM MOPS) on a UV-vis spectrophotometer. […]
A solution of lysozyme-COT 15 (5.0 μL, 0.15 mg/mL) was aliquoted into 6 samples. […] In-gel fluorescence was imaged with a Typhoon™ FLA 9500 (GE) at 532 nm with a photomultiplier tube (PMT) setting of 500 V. The experiment was carried out in triplicate (FIG. 8).
A solution of lysozyme-COT 15 (5.0 μL, 0.15 mg/mL) was aliquoted each into 6 samples. […] Samples were snap frozen under liquid nitrogen until all samples were ready to be loaded on the gel. […]

[1] = Stability in PBS with or without glutathione, sodium ascorbate or HEK293T cell lysate (HPLC); format: physicochemical
Experimental: The stability of both the enamine N-oxide and hydroxylamine species under a variety of biologically relevant conditions were verified at various time points (FIG. 5A-FIG. 5B). […] However, approximately 40% of the hydroxylamine had decomposed by the 24 hour time point. The primary degradation products were consistent with hydrolysis of the regioisomeric nitrones that were likely generated by autoxidation. Consequently, this degradation pathway could be abrogated by the addition of cellular reductants such as ascorbic acid (5 mM) or glutathione (5 mM) (Bobko et al., Free Radical Biol. Med. 42(3):404-412 (2007)).
As with the hydroxylamine, the stability of enamine N-oxide 17 was evaluated by HPLC under biologically relevant conditions.
All reactions were monitored by HPLC at 0, 1, 2, 4, 8, and 24 hour time points.
HPLC analysis: Reactions with enamine N-oxide 17 were analyzed by HPLC (Pursuit 200 Å C18, 4.6×150 mm, 10 μm particles, 1 mL/min flow rate, eluent: isocratic 0% MeCN/H2O+0.1% TFA (1 min), gradient 0→100% MeCN/H2O+0.1% TFA (14 minutes), isocratic 100% MeCN/H2O+0.1% TFA (1 minute)) and quantified using its absorbance at 280 nm. Reactions with hydroxylamine 13 were analyzed by HPLC (Pursuit 200 Å C18, 4.6×150 mm, 10 μm particles, 1 mL/min flow rate, eluent: isocratic 0% MeCN/H2O+0.1% TFA (1 minute), gradient 0-20% MeCN/H2O+0.1% TFA (1 minute), gradient 20-50% MeCN/H2O+0.1% TFA (16 minutes), gradient 50→100% MeCN/H2O+0.1% TFA (2 minutes), isocratic 100% MeCN/H2O+0.1% TFA (1 minute)) and quantified using its absorbance at 254 nm.
Stability in PBS: Enamine N-oxide 17 (4 μL, 15 mM in 25% v/v MeOH/PBS, pH 7.4) was added to PBS (116 μL, pH 7.4; 500 μM final concentration). Separately, hydroxylamine 13 (3 μL, 20 mM in deionized H2O) was added to PBS (117 μL, pH 7.4; 500 μM final concentration). Each solution was monitored by HPLC at each time point.
Stability in the presence of glutathione, sodium ascorbate, and cell lysate: The reactions were conducted as described above in the Stability in PBS section except the PBS solution was first supplemented with glutathione (5 mM final concentration), sodium ascorbate (5 mM final concentration), or HEK293T cell lysate (1 mg/mL final concentration) and pH adjusted to 7.4 before adding enamine N-oxide 17 (500 μM final concentration) or hydroxylamine 13 (500 μM final concentration).

T1 sequence (P00698 19-147): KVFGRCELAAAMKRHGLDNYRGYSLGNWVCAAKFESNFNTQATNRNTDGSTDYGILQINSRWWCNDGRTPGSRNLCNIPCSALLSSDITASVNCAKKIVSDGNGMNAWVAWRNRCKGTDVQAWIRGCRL

Structure (SMILES): CN(O)CCOCCNC(=O)c1ccc2c(c1)C1(OC2=O)c2ccc(N(C)C)cc2Oc2cc(N(C)C)ccc21 [compound 13, 3′,6′-bis(dimethylamino)-N-(2-(2-(hydroxy(methyl)amino)ethoxy)ethyl)-3-oxo-3H-spiro[isobenzofuran-1,9′-xanthene]-6-carboxamide]
- time to in-gel fluorescence signal saturation (lysozyme-COT 15; 200 μM 13, quenched with N,N-diethylhydroxylamine (20 mM)): ≤ 1 h
- hydroxylamine concentration at which labeling was saturated (lysozyme-COT 15; lysozyme-COT 15, 0-200 μM 13, PBS, 2 hours, in-gel fluorescence): 100 µM
- degradation in cell lysate ([1]; HEK293T cell lysate (1 mg/mL), 24 hours, no exogenous reductants): no degradation above background
- degradation in the presence of cellular reductants ([1]; PBS with ascorbic acid (5 mM) or glutathione (5 mM), 24 hours): Negligible degradation
- hydroxylamine decomposed ([1]; PBS, room temperature, 24 hour time point): approximately 40%
- compound intact ([1]; PBS, room temperature, up to 8 hours, HPLC): > 86%
